In one series the test system is Aspergillus spec. The experiment in a line: series dilution test, MIC. The class given is cell-based.
The subject of the next series is Trich. ment. The series is described as follows: series dilution test, MIC. Type of series: cell-based.
Series [1] has as its system Candida albicans. The experiment in a line: series dilution test, MIC. The class given is cell-based.
Series [2] is described as follows: pharmacokinetics after oral administration. The class given is in vivo. Conditions: serum, 50 mg/kg of body weight, mice and guinea pigs, read-out: serum peak concentrations. The method, then: c. Guideline data on the pharmacokinetics after oral administration. The preparations claimed are resorbed well on oral administration to mice and guinea pigs and after doses of 50 mg/kg of body weight give serum peak concentrations of 4-6 γ/ml for the case of the hydrochloride.

In the next series the test system is Cryptococcus neof. The experiment in a line: series dilution test, MIC. The class given is cell-based. Conditions: Table A.
Another series deals with Microsporon canis. The experiment in a line: series dilution test, MIC. The class given is cell-based. Conditions: for MIC: read-out: MIC values.
The subject of another series is Sporothrix Schenckii. The series is described as follows: series dilution test, MIC. Type of series: cell-based. Conditions: Table A.
In the next series the test system is Trichomonas vaginalis. The series is described as follows: series dilution test, MIC. Type of series: cell-based. Conditions: Table A.
Another series has as its system Coccidioides immitis. The experiment in a line: microbe, parasite or virus in culture. Type of series: cell-based. The note with it: for MIC values: Table A; for MIC: read-out: MIC values.
Series [3] concerns Candida albicans. The experiment in a line: experimental candidosis in mice, oral administration. Type of series: in vivo, White mice of the CF1 SPF strain. As for the experimental part:
I. on candidosis in mice.
White mice of the CF1 SPF strain are infected with 1-3 × 10^6 Candida albicans cells intravenously by puncture of the tail vein. Untreated control animals die from the 3rd to the 6th day after infection as a result of the candidosis of the organs which develops. If the preparations claimed are given orally in doses of 2 × 6.25 - 2 × 150 mg/kg of body weight, starting from the day of infection and up to the 5th day after infection, the following survival rates are observed: […]

In the next series the test system is Staph. aureus. The experiment in a line: series dilution test, MIC. Type of series: cell-based. The note with it: Table A; for MIC: Staphylococcus aureus.
For the next series, the system named is Torulopsis glab. The experiment in a line: series dilution test, MIC. The class given is cell-based. Conditions: Table A.
In a further series the test system is Microsporon felinum. The series is described as follows: series dilution test, MIC. The class given is cell-based. Conditions: Table B.
The test system of another series is Pityrosporum ovale. The series is described as follows: series dilution test, MIC. The class given is cell-based. The note with it: Table A; for MIC: Malassezia furfur.
The mark [4] stands for this setting: 2 × 6.25 mg/kg of body weight, 6.25 mg/kg.
Where [5] appears, read: 2 × 12.5 mg/kg of body weight, 12.5 mg/kg.
[6] abbreviates: 2 × 25 mg/kg of body weight, 25 mg/kg.

≈ marks a conversion by molar mass, not a printed value. Where two headings read alike, the source gives them in different places.

Regarding `CC(C)(C)C(=O)C(Cn1ccnc1)Oc1ccc(Cl)cc1` (stereo not drawn), the MIC worked out at 8 mg/L (≈ 26.1 µM) against Aspergillus spec. (Table B); 4 mg/L (≈ 13 µM) in the series with Trich. ment. (Table B, Trichophyton ment.); 4 mg/L (≈ 13 µM) against Candida albicans [1] (Table B).

For the molecule `CC(C)(C)C(=O)C(Oc1ccc(-c2ccc(Cl)cc2)cc1)n1ccnc1.Cl` (stereo not drawn) [Example 1, 1-(imidazol-1-yl)-1-[4-(4-chlorophenyl)phenoxy]-3,3-dimethyl-butan-2-one hydrochloride], in series [2], the Cmax was 4 to 6 µg/mL.

As to `C[C@@H]1[C@H](O)[C@@H](C)/C=C/C=C/CC/C=C/C=C/C=C/C=C/C(O[C@H]2O[C@H](C)[C@@H](O)[C@H](N)[C@@H]2O)CC2O[C@](O)(CC(O)C(O)CCC(O)CC(O)CC(O)CC(=O)O[C@H]1C)CC(O)C2C(=O)O` (stereo partly drawn) [Nystatin, nystatin], the MIC values with Aspergillus spec. (Table A) was 40 to 100 mg/L; against Cryptococcus neof., 4 to 10 mg/L; against Microsporon canis (Table A, Microsporon canis), 20 to 40 mg/L; against Sporothrix Schenckii, 40 mg/L (≈ 43.2 µM); against Trich. ment. (Table A, Trich. ment.), 20 mg/L (≈ 21.6 µM); against Trichomonas vaginalis it was > 1,000 γ/ml. The MIC values in the series with Candida albicans [1] (Table A) was 5 mg/L (≈ 5.4 µM); against Coccidioides immitis, 40 mg/L (≈ 43.2 µM); against Staph. aureus, greater than 100 mg/L; in the series with Torulopsis glab., 5 mg/L (≈ 5.4 µM). Besides, the “Survival rates on the 6th day after infection” value (“Survival rates on the 6th day” for short) is recorded as less than 10% in the series with Candida albicans [3] (2 × 6.25 mg/kg of body weight); less than 10% in the series on Candida albicans [3] (2 × 12.5 mg/kg of body weight); less than 10% in the series on Candida albicans [3] (2 × 25 mg/kg of body weight); less than 10% with Candida albicans [3] (2 × 50 mg/kg of body weight); 30% in the series with Candida albicans [3] (2 × 100 mg/kg of body weight); 50% with Candida albicans [3] (2 × 150 mg/kg of body weight).

Turning to `CC(C)(C)C(=O)C(Cn1ccnc1)Oc1ccccc1-c1ccccc1` (stereo not drawn), the MIC in the series with Aspergillus spec. (Table B) is 8 mg/L (≈ 23 µM); with Trich. ment. (Table B, Trichophyton ment.), 8 mg/L (≈ 23 µM); against Candida albicans [1] (Table B) it was 4 mg/L (≈ 11.5 µM).

Regarding `O=C(c1ccccc1)C(Oc1cccc(Cl)c1)n1ccnc1` (stereo not drawn), the MIC against Aspergillus spec. (Table B) was 40 mg/L (≈ 128 µM); against Trich. ment. (Table B, Trichophyton ment.), 4 mg/L (≈ 12.8 µM); in the series on Candida albicans [1] (Table B), 10 mg/L (≈ 32 µM); with Microsporon felinum, 40 mg/L (≈ 128 µM).

On to `CC(C)(C)C(=O)C(Cn1ccnc1)Oc1ccc(Br)cc1` (stereo not drawn), for which the MIC in the series with Aspergillus spec. (Table B) amounted to 4 mg/L (≈ 11.4 µM); in the series with Trich. ment. (Table B, Trichophyton ment.), 8 mg/L (≈ 22.8 µM); with Candida albicans [1] (Table B) it was 4 mg/L (≈ 11.4 µM).

Take `CC(C)(C)C(=O)C(Oc1ccc(-c2ccc(Cl)cc2)cc1)n1ccnc1` (stereo not drawn) [drawing 15]: the “Survival rates on the 6th day” value in the series on Candida albicans [3] (setting [4]) stood at 95%; in the series with Candida albicans [3] (setting [5]), 95%; in the series on Candida albicans [3] (setting [6]) it was 100%; in the series on Candida albicans [3] (2 × 50 mg/kg of body weight) it was 100%; with Candida albicans [3] (2 × 100 mg/kg of body weight) it was 100%; in the series with Candida albicans [3] (2 × 150 mg/kg of body weight), 100%.

Take `OC(O)(c1ccccc1)C(Oc1cccc(Cl)c1)n1ccnc1` (stereo not drawn): the MIC was 40 mg/L (≈ 121 µM) in the series with Aspergillus spec. (Table B); 4 mg/L (≈ 12.1 µM) in the series on Trich. ment. (Table B, Trichophyton ment.); 4 mg/L (≈ 12.1 µM) with Candida albicans [1] (Table B); 40 mg/L (≈ 121 µM) in the series with Microsporon felinum.

For the molecule `CC(C)(C)C(=O)C(Oc1ccc(-c2ccc(Cl)cc2)cc1)n1ccnc1` (stereo not drawn) [drawing 14], the “Survival rates on the 6th day” value was 55% in the series with Candida albicans [3] (setting [4]); 70% in the series on Candida albicans [3] (setting [5]); 80% in the series with Candida albicans [3] (setting [6]); 100% with Candida albicans [3] (2 × 50 mg/kg of body weight); 100% in the series with Candida albicans [3] (2 × 100 mg/kg of body weight); 100% in the series on Candida albicans [3] (2 × 150 mg/kg of body weight).

For the molecule `CC(C)(C)C(=O)C(Oc1ccc(-c2ccc(Cl)cc2)cc1)n1ccnc1` (stereo not drawn) [drawing 5], the MIC values in the series with Aspergillus spec. (Table A) is less than 1 mg/L; with Cryptococcus neof., 1 to 2 mg/L; against Microsporon canis (Table A, Microsporon canis), less than 1 mg/L; against Sporothrix Schenckii, 0.5 mg/L (≈ 1.36 µM); in the series on Trich. ment. (Table A, Trich. ment.) it was less than 1 mg/L; against Pityrosporum ovale, less than 1 mg/L. The MIC values against Trichomonas vaginalis was 250 µg/mL (≈ 678 µM); in the series with Candida albicans [1] (Table A) it was 2 mg/L (≈ 5.42 µM); in the series on Coccidioides immitis, 0.1 mg/L (≈ 0.271 µM); in the series with Staph. aureus it was 4 mg/L (≈ 10.8 µM); in the series with Torulopsis glab., 2 mg/L (≈ 5.42 µM).

In the case of `CC(C)(C)C(=O)C(Cn1ccnc1)Oc1ccc(F)cc1` (stereo not drawn), the MIC amounted to 4 mg/L (≈ 13.8 µM) in the series on Aspergillus spec. (Table B); 8 mg/L (≈ 27.6 µM) in the series on Trich. ment. (Table B, Trichophyton ment.); 4 mg/L (≈ 13.8 µM) in the series on Candida albicans [1] (Table B).

With `O=C(c1ccccc1)C(Oc1c(Cl)cccc1Cl)n1ccnc1` (stereo not drawn), the MIC with Aspergillus spec. (Table B) stood at 100 mg/L (≈ 288 µM); against Trich. ment. (Table B, Trichophyton ment.), 4 mg/L (≈ 11.5 µM); in the series with Candida albicans [1] (Table B), 4 mg/L (≈ 11.5 µM); in the series on Microsporon felinum it was 40 mg/L (≈ 115 µM).

On to `COC1=CC(=O)C[C@@H](C)[C@]12Oc1c(Cl)c(OC)cc(OC)c1C2=O` [Griseofulvin, griseofulvin], for which the MIC is 40 to 100 mg/L (≈ 113 to 283 µM) against Aspergillus spec. (Table A); greater than 100 mg/L against Cryptococcus neof.; 5 to 10 mg/L (≈ 14.2 to 28.3 µM) in the series on Microsporon canis; greater than 100 mg/L with Sporothrix Schenckii (Sporothrix schenckii); 5 to 10 mg/L (≈ 14.2 to 28.3 µM) against Trich. ment. (Table A, Trich. ment.); greater than 100 mg/L in the series on Pityrosporum ovale. The MIC in the series with Trichomonas vaginalis is greater than 1000 mg/L; in the series on Candida albicans [1] (Table A) it was greater than 100 mg/L; in the series with Coccidioides immitis, greater than 100 mg/L; with Staph. aureus, greater than 100 mg/L; against Torulopsis glab., greater than 100 mg/L.

As to `O=C(c1ccccc1)C(Oc1ccc(Cl)cc1)(c1ccccc1)n1ccnc1` (stereo not drawn), the MIC was 10 mg/L (≈ 25.7 µM) with Aspergillus spec. (Table B); 10 mg/L (≈ 25.7 µM) in the series with Trich. ment. (Table B, Trichophyton ment.); 10 mg/L (≈ 25.7 µM) in the series on Candida albicans [1] (Table B); 40 mg/L (≈ 103 µM) against Microsporon felinum.

On to `CC(C)(C)C(=O)C(Oc1ccc(-c2ccc(Cl)cc2)cc1)n1ccnc1` (stereo not drawn) [drawing 4], for which the MIC is less than 1 mg/L in the series with Aspergillus spec. (Table A); 1 to 2 mg/L (≈ 2.71 to 5.42 µM) against Cryptococcus neof.; less than 1 mg/L in the series with Microsporon canis (Table A, Microsporon canis); less than 1 mg/L in the series on Trich. ment. (Table A, Trich. ment.); less than 1 mg/L in the series with Pityrosporum ovale; 250 mg/L (≈ 678 µM) with Trichomonas vaginalis. Moreover, the MIC with Candida albicans [1] (Table A) is 2 to 4 mg/L (≈ 5.42 to 10.8 µM); with Coccidioides immitis it was 0.1 mg/L (≈ 0.271 µM); with Staph. aureus it was 8 mg/L (≈ 21.7 µM); in the series on Torulopsis glab., 2 mg/L (≈ 5.42 µM). Further, the MIC values in the series with Sporothrix Schenckii was found to be 0.1 mg/L (≈ 0.271 µM).

The record behind these values is patent publication US4000299A, “1-(Imidazol-1-yl)-1-[4-(4-chlorophenyl)phenoxy]-3,3-dimethylbutan-2-one, its salts and a process for their use” (Bayer Aktiengesellschaft, priority 1974, dated 1976).
